The record followed here is ChEMBL document CHEMBL1201862, “PubChem BioAssay data set” (2004).

Among the test systems are ACHN; COLO 205; EKVX; HCC 2998; HL-60; HOP-92; IGROV-1; M14; NCI-H23; NCI-H460; OVCAR-8; SK-MEL-5; SW-620; TK-10; LOX IMVI; MOLT-4; RXF 393; SK-MEL-2.
Holding throughout (experiment): NCI anticancer screen, dose series, 48 h

Molecules are shown by their SMILES.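 Dose response: 5 concentrations. Exposure: 48 h. Format: 96-well plates. Endpoint: linear interpolation; highest concentration if not reached. Abbreviation: GI50, concentration required for 50% inhibition of growth.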 The source made the active and inactive calls. Rule as the data show it: active = GI50 up to about 1.1 µM and inactive = higher.

Take `COC(=O)C(C)Oc1ccc(O)cc1` (stereo not given): the GI50 in the assay on ACHN, in the assay on COLO 205, in the assay with EKVX, with HCC 2998, with HL-60 and with HOP-92 was > 100 µM (inactive) in each case. The GI50 in the assay on IGROV-1, in the assay with M14, in the assay on NCI-H23, in the assay with NCI-H460, with OVCAR-8 and in the assay with SK-MEL-5 was > 100 µM (inactive) in each case. Moreover, the GI50 was 34.9 µM (inactive) in the assay on SW-620 and > 100 µM (inactive) with TK-10.
Take `C1CN2N3CCCC23C1` (stereo not given): the GI50 with ACHN, in the assay with COLO 205, with EKVX, with HCC 2998, with HL-60 and with IGROV-1 was > 100 µM (inactive) in each case. Besides, the GI50 with LOX IMVI, in the assay with M14, in the assay with MOLT-4, in the assay on NCI-H23, in the assay on NCI-H460 and with OVCAR-8 was > 100 µM (inactive) in each case. Also, the GI50 with RXF 393, in the assay on SK-MEL-2, in the assay on SK-MEL-5, with SW-620 and with TK-10 was > 100 µM (inactive) each time.
As for `Nc1ccc(C23CC4CC(C2)CC(c2ccc(N)cc2)(C4)C3)cc1`, the GI50 with ACHN is 41.1 µM (inactive); with COLO 205, 2.3 µM (inactive); with EKVX, 36.6 µM (inactive); with HCC 2998 it was 8.09 µM (inactive); with HL-60, 31 µM (inactive); with HOP-92 it was 41.8 µM (inactive). Moreover, the GI50 is > 100 µM (inactive) in the assay with IGROV-1; > 100 µM (inactive) in the assay with LOX IMVI; 37.2 µM (inactive) in the assay on M14; 11.3 µM (inactive) in the assay on MOLT-4; 59.6 µM (inactive) in the assay with NCI-H23; 37.2 µM (inactive) with NCI-H460. Further, the GI50 in the assay on OVCAR-8 is 85.1 µM (inactive); with SK-MEL-2, 35.9 µM (inactive); with SK-MEL-5 it was 13.1 µM (inactive); in the assay on SW-620 it was 3.14 µM (inactive); in the assay on TK-10 it was > 100 µM (inactive).
For `COc1cc(/C=C(\NC(=O)c2ccccc2)c2nc3cncnc3[nH]2)cc(OC)c1OC`, the GI50 in the assay with ACHN is > 100 µM (inactive); in the assay with COLO 205 it was > 100 µM (inactive); with EKVX, > 100 µM (inactive); in the assay on HCC 2998, > 100 µM (inactive); in the assay on HL-60, > 100 µM (inactive); in the assay with HOP-92, 88.1 µM (inactive). Moreover, the GI50 in the assay on IGROV-1, in the assay on M14, with MOLT-4, in the assay with NCI-H23, in the assay with OVCAR-8 and in the assay on RXF 393 was > 100 µM (inactive) in each case. Besides, the GI50 in the assay on SK-MEL-2, in the assay on SK-MEL-5, with SW-620 and with TK-10 was > 100 µM (inactive) in each case.
As for `Cc1ccc2nc(NC(=O)C(=O)C(C#N)c3ccc(Cl)cc3)sc2c1` (stereo not given), the GI50 in the assay on ACHN, in the assay on COLO 205, in the assay with EKVX, with HCC 2998, in the assay with HOP-92 and in the assay with IGROV-1 was > 50 µM (inactive) throughout. Besides, the GI50 with LOX IMVI, in the assay with M14, in the assay on NCI-H23, in the assay on NCI-H460, with OVCAR-8 and with RXF 393 was > 50 µM (inactive) in each case. In addition, the GI50 with SK-MEL-2, in the assay on SW-620 and in the assay on TK-10 was > 50 µM (inactive) each time.
`NCCNC(=O)c1cccc2cc3ccccc3nc12`: the GI50 was 1.02 µM (active) in the assay on ACHN; 1.07 µM (active) with COLO 205; 3.7 µM (inactive) in the assay on EKVX; 2.65 µM (inactive) in the assay on HCC 2998; 19.6 µM (inactive) with HOP-92; 3.48 µM (inactive) with IGROV-1. Besides, the GI50 was 1.24 µM (inactive) with LOX IMVI; 3.53 µM (inactive) in the assay on M14; 0.333 µM (active) in the assay on MOLT-4; 2.62 µM (inactive) in the assay on NCI-H23; 2.08 µM (inactive) in the assay on OVCAR-8; 2.31 µM (inactive) in the assay with RXF 393. The GI50 in the assay on SK-MEL-2 is 2.47 µM (inactive); in the assay with SK-MEL-5, 2.23 µM (inactive); in the assay on SW-620 it was 1.42 µM (inactive); in the assay with TK-10, 2.3 µM (inactive).
Turning to `CCCCCCCCCCC(O)CCCCCCC(=O)O` (stereo not given), the GI50 in the assay with ACHN was 22.5 µM (inactive); in the assay on COLO 205, 15.7 µM (inactive); with EKVX it was 31.7 µM (inactive); in the assay with HL-60, 8.05 µM (inactive); in the assay on HOP-92, 18.1 µM (inactive); in the assay with IGROV-1, 18.2 µM (inactive). Moreover, the GI50 with LOX IMVI is 15.8 µM (inactive); in the assay on M14, 19.1 µM (inactive); in the assay with MOLT-4, 12.7 µM (inactive); in the assay with NCI-H23 it was 35 µM (inactive); in the assay on NCI-H460, 16.3 µM (inactive); in the assay with OVCAR-8 it was 16.2 µM (inactive). Also, the GI50 is 34.1 µM (inactive) in the assay with RXF 393; 47.9 µM (inactive) with SK-MEL-2; 16 µM (inactive) with SK-MEL-5; 29.9 µM (inactive) in the assay with SW-620; 65.9 µM (inactive) with TK-10.
Consider `CNc1nc(N)cc(O)n1`, for which the GI50 in the assay on ACHN, in the assay with COLO 205, in the assay on EKVX, with HCC 2998, with HL-60 and in the assay with IGROV-1 was > 100 µM (inactive) throughout. The GI50 in the assay on LOX IMVI, in the assay on M14, with MOLT-4, in the assay on NCI-H23, in the assay with NCI-H460 and in the assay on OVCAR-8 was > 100 µM (inactive) in each case. Also, the GI50 with SK-MEL-2, in the assay with SK-MEL-5, in the assay with SW-620 and in the assay with TK-10 was > 100 µM (inactive) each time.
For `C/C(=N\NS(=O)(=O)c1ccc(C)cc1)c1ccc[n+]([O-])n1`, the GI50 in the assay with ACHN was > 100 µM (inactive); in the assay on EKVX it was > 100 µM (inactive); in the assay with HCC 2998, > 100 µM (inactive); with HL-60, 26.9 µM (inactive); in the assay on HOP-92, 32.3 µM (inactive); in the assay on IGROV-1, > 100 µM (inactive). For the same compound, the GI50 with M14 was 39.6 µM (inactive); with MOLT-4 it was 56.9 µM (inactive); in the assay on NCI-H23, > 100 µM (inactive); in the assay with NCI-H460, > 100 µM (inactive); in the assay with OVCAR-8, 99.3 µM (inactive); in the assay on SK-MEL-5, > 100 µM (inactive). In the assay with SW-620, the GI50 is 32.1 µM (inactive).
In the case of `O=C1C2c3[nH]c4ccccc4c3C3CCCC3C2C(=O)N1c1ccccc1` (stereo not given), the GI50 in the assay on ACHN, with COLO 205, in the assay with EKVX, with HCC 2998, in the assay on IGROV-1 and in the assay with LOX IMVI was > 100 µM (inactive) in each case. The GI50 was > 100 µM (inactive) in the assay on M14; > 100 µM (inactive) in the assay on MOLT-4; > 100 µM (inactive) in the assay with NCI-H23; 91.8 µM (inactive) in the assay on NCI-H460; 61.8 µM (inactive) in the assay with OVCAR-8; > 100 µM (inactive) in the assay with RXF 393. Besides, the values for the GI50 in the assay on SK-MEL-5, with SW-620 and with TK-10 were > 100 µM (inactive), 74.1 µM (inactive) and > 100 µM (inactive), respectively.
On to `O=[PH](O)c1ccccn1`, for which the GI50 in the assay with ACHN, in the assay with COLO 205, in the assay on EKVX, in the assay with HCC 2998, with HL-60 and in the assay on HOP-92 was > 100 µM (inactive) each time. For the same compound, the GI50 in the assay on IGROV-1, in the assay on LOX IMVI, in the assay on M14, in the assay with MOLT-4, in the assay with NCI-H23 and with NCI-H460 was > 100 µM (inactive) throughout. For the same compound, the GI50 in the assay on OVCAR-8, in the assay with RXF 393, in the assay on SK-MEL-5, in the assay on SW-620 and with TK-10 was > 100 µM (inactive) throughout.
For the compound `C[C@@]1(Cc2ccccc2)C(=O)N2[C@@H](CO)C(c3ccccc3)O[C@]2(C)c2ccccc21` (stereo not given in full), the GI50 with ACHN, in the assay on COLO 205, in the assay on EKVX, in the assay with HL-60, in the assay on HOP-92 and in the assay on IGROV-1 was > 100 µM (inactive) throughout. Moreover, the GI50 was > 100 µM (inactive) with LOX IMVI; > 100 µM (inactive) in the assay with M14; 32.3 µM (inactive) with MOLT-4; > 100 µM (inactive) in the assay with NCI-H23; > 100 µM (inactive) with OVCAR-8; > 100 µM (inactive) in the assay with RXF 393. The GI50 is > 100 µM (inactive) with SK-MEL-2, > 100 µM (inactive) with SK-MEL-5, 91.6 µM (inactive) in the assay on SW-620 and > 100 µM (inactive) with TK-10.
`O=C1c2ccccc2C(=O)c2c1ccc(O)c2O` [ATHRAQUINONES A]: the GI50 is 34.8 µM (inactive) in the assay with ACHN; 34.5 µM (inactive) with COLO 205; 26.9 µM (inactive) in the assay on EKVX; 33.1 µM (inactive) in the assay with HCC 2998; 38.6 µM (inactive) with HOP-92; 35.6 µM (inactive) with IGROV-1. The GI50 is 37.8 µM (inactive) in the assay with LOX IMVI; 77.6 µM (inactive) in the assay with M14; 32.4 µM (inactive) in the assay with MOLT-4; 41.6 µM (inactive) with NCI-H23; 38.9 µM (inactive) in the assay on NCI-H460; 31.3 µM (inactive) with OVCAR-8. Moreover, the GI50 is 40.8 µM (inactive) with RXF 393, 43 µM (inactive) in the assay on SK-MEL-2, 37.9 µM (inactive) in the assay with SW-620 and > 100 µM (inactive) in the assay with TK-10.
